Assay results taken from ChEMBL document CHEMBL4145655, “Confirmation of the Revised Structure of Samoquasine A and a Proposed Structural Revision of Cherimoline” (2018).
The source made the active and inactive calls. The calls are words filed in the database; no cut-off is given here.

Key:
[1] = tested on: Panel NCI-60 (60 carcinoma cell lines); test: Cytotoxicity against human NCI60 cells at 10 uM after 48 hrs by sulforhodamine B assay; assay type: functional, cell-based
NUGC = test: Growth inhibition of human NUGC cells at 50 ug/ml relative to control; assay type: functional; conditions: read-out: GI
HONE1 cell line = test: Growth inhibition of human HONE1 cells at 50 ug/ml relative to control; assay type: functional; conditions: read-out: GI

Question: With `Cn1ccc2c(cnc3ccccc32)c1=O` as the compound, how does the Activity [1] read?
Answer: Its Activity is “inactive”.

Question: For `O=c1occc2c1cnc1ccccc12`, which Activity [1] is on record?
Answer: The Activity was “inactive”.

Question: `O=c1[nH]ccc2c1cnc1ccccc12` was tested. Which inhibition of growth at 50 µg/mL (NUGC) did it give?
Answer: Its inhibition of growth at 50 µg/mL is 63%.

Question: What about the Activity [1] of the same compound?
Answer: Its Activity is “inactive”.

Question: And the inhibition of growth at 50 µg/mL (HONE1 cell line)?
Answer: The inhibition of growth at 50 µg/mL was 62%.
